≈ marks a conversion by molar mass, not a printed value. Like-named read-outs stand apart in the source and are kept apart here.
Key:
Test in all cases: Minimum inhibitory concentration (MIC) against bacteria
Format in all cases: cell-based
[1] = test system: Citrobacter freundii GN 346; conditions: GN346
Text: (§1) In an antimicrobial spectrum, a minimum inhibitory concentration (MIC) against a bacterium is expressed in terms of μg/ml.

[2] = test system: Enterobacter cloacae GN 336; conditions: GN336
Text: as §1

Escherichia coli, 0205 = test system: Escherichia coli, 0205
Text: as §1

Escherichia coli, NIHJ = test system: Escherichia coli, NIHJ
Text: as §1

[3] = test system: Klebsiella pheumoniae, ATCC 10031
Text: as §1

Proteus mirabilis = test system: Proteus mirabilis
Text: as §1

Proteus morganii 0239 = test system: Proteus morganii 0239
Text: as §1

Proteus rettgeri, ACR = test system: Proteus rettgeri, ACR
Text: as §1

[4] = test system: Salmonella enteritidis gaertner
Text: as §1

[5] = test system: Staphylococcus aureus, ATCC 6538 P
Text: as §1

[6] = test system: Staphylococcus aureus, ATCC MS 27
Text: as §1

[7] = Citrobacter freundii GN 346, read-out: MIC
[8] = Enterobacter cloacae GN 336, read-out: MIC
[9] = ATCC10031, Klebsiella pheumoniae, ATCC 10031, read-out: MIC
[10] = Morganella morganii, Proteus morganii 0239, read-out: MIC
[11] = Providencia rettgeri, Proteus rettgeri, ACR, read-out: MIC
[12] = Salmonella enterica, Salmonella enteritidis gaertner, read-out: MIC
[13] = ATCC6538, ATCC 6538 P, read-out: MIC
[14] = ATCCMS27, ATCC MS 27, read-out: MIC

Compound	MIC [1, 7] [µg/mL]	MIC [2, 8] [µg/mL]	MIC (Escherichia coli, 0205; read-out: MIC) [µg/mL]	MIC (Escherichia coli, NIHJ; read-out: MIC) [µg/mL]	MIC [3, 9] [µg/mL]	MIC (Proteus mirabilis; read-out: MIC) [µg/mL]	MIC (Proteus morganii 0239; [10]) [µg/mL]	MIC (Proteus rettgeri, ACR; [11]) [µg/mL]	MIC [4, 12] [µg/mL]	MIC [5, 13] [µg/mL]	MIC [6, 14] [µg/mL]	MIC ([1]; Citrobacter freundii) [µg/mL]	MIC ([2]; Enterobacter cloacae) [µg/mL]	MIC (Proteus mirabilis) [µg/mL]	further results
Cn1nnnc1SCC1=C(C(=O)O)N2C(=O)C(NC(=O)C[S+]([O-])c3cccs3)[C@H]2SC1 (stereo partly drawn) [A, 7-(2-Thienylsulfinylacetamido)-3-(1-methyl-1H-tetrazol-5-ylthiomethyl)-3-cephem-4-carboxylic acid]	> 100	100 (≈ 200 µM)	25 (≈ 49.9 µM)	0.8 (≈ 1.6 µM)	≤ 0.2	0.8 (≈ 1.6 µM)	> 100	25 (≈ 49.9 µM)	≤ 0.2	≤ 0.2	0.4 (≈ 0.799 µM)	–	–	–	–
Cc1nnc(SCC2=C(C(=O)O)N3C(=O)[C@@H](NC(=O)Cn4cnnn4)[C@H]3SC2)s1 [Cefazolin, 7-(1H-Tetrazol-1-ylacetamido)-3-(5-methyl-1,3,4-thiadiazol-2-ylthiomethyl)-3-cephem-4-carboxylic acid]	> 100	> 100	12.5 (≈ 27.5 µM)	1.6 (≈ 3.52 µM)	1.6 (≈ 3.52 µM)	3.1 (≈ 6.82 µM)	> 100	> 100	1.6 (≈ 3.52 µM)	≤ 0.2	0.8 (≈ 1.76 µM)	–	–	–	–
CC(=O)OCC1=C(C(=O)O)N2C(=O)[C@@H](NC(=O)Cc3cccs3)[C@H]2SC1 [Cephalothin, 7-(2-Thienylacetamido)-3-acetoxymethyl-3-cephem-4-carboxylic acid]	–	–	> 100	6.3 (≈ 15.9 µM)	–	–	–	–	–	–	–	> 100	> 100	6.3 (≈ 15.9 µM)	MIC ([3]; Klebsiella, ATCC10031): 0.8 µg/mL (≈ 2.02 µM); MIC (Proteus morganii 0239; Morganella morganii, 0239): > 100 µg/mL; MIC (Proteus rettgeri, ACR; Providencia rettgeri): > 100 µg/mL; MIC ([4]; Salmonella enterica, ENTERITIDIS): 1.6 µg/mL (≈ 4.04 µM); MIC ([5]; ATCC6538): ≤ 0.2 µg/mL; MIC ([6]; ATCCMS27): 0.4 µg/mL (≈ 1.01 µM)
CO[C@@]1(NC(=O)C[S+]([O-])c2cccs2)C(=O)N2C(C(=O)O)=C(CSc3nnnn3C)CS[C@@H]21 (stereo partly drawn) [Example 21, 7β-(2-Thienylsulfinylacetamido)-7α-methoxy-3-(1-methyl-1H-tetrazol-5-ylthiomethyl)-3-cephem-4-carboxylic acid]	–	–	–	–	–	–	–	–	–	–	–	100 (≈ 188 µM)	25 (≈ 47.1 µM)	0.8 (≈ 1.51 µM)	MIC (Escherichia coli, 0205): 3.1 µg/mL (≈ 5.84 µM); MIC (Escherichia coli, NIHJ): 1.6 µg/mL (≈ 3.02 µM); MIC ([3]; Klebsiella pheumoniae, ATCC 10031): ≤ 0.2 µg/mL; MIC (Proteus morganii 0239; Proteus morganii 0239): 12.5 µg/mL (≈ 23.6 µM); MIC (Proteus rettgeri, ACR; Proteus rettgeri, ACR): 6.3 µg/mL (≈ 11.9 µM); MIC ([4]; Salmonella enteritidis gaertner): ≤ 0.2 µg/mL; MIC ([5]; ATCC 6538 P): 0.8 µg/mL (≈ 1.51 µM); MIC ([6]; ATCC MS 27): 0.8 µg/mL (≈ 1.51 µM)
CO[C@@]1(NC(=O)C[S+]([O-])c2cccs2)C(=O)N2C(C(=O)[O-])=C(CSc3nnnn3C)CS[C@@H]21.[Na+] (stereo partly drawn) [Example 23, sodium 7β-(2-thienylsulfinylacetamido)-7α-methoxy-3-(1-methyl-1H-tetrazol-5-ylthiomethyl)-3-cephem-4-carboxylate]	–	–	–	–	–	–	–	–	–	–	–	–	–	–	MIC (Escherichia coli, 0205; text of Example 23 (sodium salt)): 3.1 µg/mL

— patent publication US4229573A, “7α-Methoxycephalosporin derivatives” (Asahi Kasei Kogyo Kabushiki Kaisha, priority 1977, dated 1980)
